Holding throughout (assay type): in vivo, mouse
Series [1] relates to ddY mice. Briefly: Locomotion, offspring after maternal glyphosate exposure. Conditions: juvenile offspring, maternal 0.095% glyphosate vs water. The procedure:
Locomotor Activity: Both horizontal and rearing activity were monitored by an infrared ray passive sensor system (SCANET-SV10, Melquest Ltd., Toyama, Japan), and activity was integrated every minute. Individual mice were placed in activity chambers and allowed 1 hour of free exploration as spontaneous activity.

Series [2] deals with ddY mice. Nature of the series: Three-chamber social interaction test, offspring after maternal glyphosate exposure. Conditions: juvenile offspring, maternal 0.095% glyphosate vs water treated group. The procedure: Treatment of TPPU. TPPU was dissolved in polyethylene glycol 400 (PEG 400: Tokyo Chemical Industry Co., Ltd, Tokyo, Japan). TPPU (3 mg/kg/day) or vehicle (5 ml/kg, PEG 400) was administered orally in the pregnant mice from E5 to P21. Behavioral tests of offspring were performed during juvenile stage (P28-P35) after maternal glyphosate exposure (FIG. 1A).
Three-chamber Social Interaction Test: The three-chamber social interaction test was performed to investigate sociability and preference for social novelty in mice, as reported previously (7). The apparatus consisted of a rectangular, three-chambered box and a lid with a video camera (BrainScience Idea, Co., Ltd, Osaka, Japan). Each chamber (20 cm×40 cm×20 cm) was divided by a clear plastic wall with a small square opening (5 cm×8 cm). First, each subject mouse was placed in the box and allowed to explore for 10 min to habituate the environment. During the session, an empty wire cage (10 cm in diameter, 17.5 cm in height, with vertical bars 0.3 cm apart) was located in the center of left and right chamber. Next, an unfamiliar ddY male mouse (stranger 1) that had no prior contact with the subject mouse was put into a wire cage that was placed into one of the side chambers. […] The time spent in each chamber and the time spent around each cage was recorded on video.

For series [3], the system named is ddY mice. Nature of the series: Measurement of NMDAR-related amino acids in plasma and brain after maternal glyphosate exposure. The settings on record: juvenile offspring (P28). The procedure: Measurement of amino acids. On P28, mice were deeply anesthetized with isoflurane and plasma was collected. Subsequently, prefrontal cortex (PFC), hippocampus and striatum were quickly dissected on ice from whole brain. The dissected tissues were weighed and stored at −80° C. until assayed. Levels of amino acids (glutamate, glutamine, glycine, L-serine, D-serine, GABA) were measured using high performance liquid chromatography system (Shimadzu Corporation, Kyoto, Japan), as reported previously (12,18,19).

The test system of another series is parvalbumin (PV). Nature of the series: PV immunohistochemistry in mPFC, offspring after MIA. Conditions: adult offspring of poly(I:C)-treated mice vs saline-treated group. The procedure: Immunohistochemistry. Immunohistochemistry of PV was performed as reported previously (37,39,59,60). Mice were anesthetized with 5% isoflurane and sodium pentobarbital (50 mg/kg), and perfused transcardially with 10 mL of physiological saline, followed by 40 mL of ice-cold 4% paraformaldehyde in 0.1M phosphate buffer (pH 7.4). Brains were removed from the skulls and post fixed overnight at 4° C. in the same fixative. For the immunohistochemical analysis, 50 μm-thick serial, coronal sections of brain tissue were cut in ice-cold 0.01M phosphate buffered saline (pH 7.5) using a vibrating blade microtome (VT1000s, Leica Microsystems, Tokyo, Japan). Free-floating sections were treated with 0.3% H2O2 in 50 mM Tris-HCl saline (TBS) for 30 min and were blocked in TBS containing 0.2% Triton X-100 (TBST) and 1.5% normal serum for 1 h at room temperature. […] The sections were imaged, and the staining intensity of PV (or GADO immunoreactivity in the inflalimbic (IL) and prelimbic (PrL) regions of mPFC was analyzed using a light micro-scope equipped with a CCD camera (Olympus IX70, Tokyo, Japan) and the SCION IMAGE software package. Images of sections within mPFC region were captured using a 100× objective with a Keyence BZ-X710 microscope (Keyence Corporation, Osaka, Japan).

In the case of `O=C(O)CNCP(=O)(O)O` [glyphosate], in the series on ddY mice [1], the locomotion result was “not different”. Moreover, the “three-chamber social interaction test” value with ddY mice [2] is reported as “social interaction deficits”. In the series on ddY mice [3] (PFC), the D-Serine level came to 0.313 ± 0.010 nmol/mg tissue, the GABA level was found to be 2.060 ± 0.058 nmol/mg tissue, the Glutamate level worked out at 10.392 ± 0.377 nmol/mg tissue and the Glutamine level is 5.053 ± 0.243 nmol/mg tissue. Also, in the series on ddY mice [3] (PFC), the Glycine level came to 0.705 ± 0.023 nmol/mg tissue and the L-Serine level is reported as 0.622 ± 0.016 nmol/mg tissue. In the series with ddY mice [3] (hippocampus), the D-Serine level came out at 0.259 ± 0.017 nmol/mg tissue, the GABA level is recorded as 2.469 ± 0.097 nmol/mg tissue, the Glutamate level is recorded as 9.350 ± 0.282 nmol/mg tissue and the Glutamine level was 4.765 ± 0.137 nmol/mg tissue. Also, in the series with ddY mice [3] (hippocampus), the Glycine level was found to be 0.725 ± 0.030 nmol/mg tissue and the L-Serine level is given as 0.662 ± 0.037 nmol/mg tissue. Also, in the series on ddY mice [3] (plasma), the D-Serine level amounted to 7.522 ± 0.578 nmol/mL, the Glutamate level worked out at 38.003 ± 1.974 nmol/mL, the Glutamine level worked out at 496.268 ± 15.748 nmol/mL and the Glycine level was found to be 354.185 ± 9.806 nmol/mL. The L-Serine level in the series on ddY mice [3] (plasma) was determined as 144.824 ± 4.622 nmol/mL. In the series with ddY mice [3] (striatum), this compound showed a D-Serine level of 0.281 ± 0.010 nmol/mg tissue, a GABA level of 3.076 ± 0.151 nmol/mg tissue, a Glutamate level of 7.745 ± 0.141 nmol/mg tissue and a Glutamine level of 5.735 ± 0.319 nmol/mg tissue. In the series on ddY mice [3] (striatum), the Glycine level amounted to 0.755 ± 0.039 nmol/mg tissue and the L-Serine level was 0.715 ± 0.032 nmol/mg tissue.

As for “polyriboinosinic-polyribocytidilic acid [Poly(I:C)]”, the “PV-IR in the PrL of mPFC” value in the series on parvalbumin (PV) was “significantly lower”.

The values are drawn from patent publication US12357598B2, “Treatment of neurodevelopmental disorders” (THE REGENTS OF THE UNIVERSITY OF CALIFORNIA, priority 2018, dated 2025).
